Test system: 616215-338-R-J1-PDC complex spheroid growth, % test/control
Assay: Anticancer human tumor 616215-338-R-J1-PDC patient-derived colon adenocarcinoma cell line growth inhibition [Asc]
Conditions: for IC50: curve of first compound; for viability, T/C: stronger effect = lower value
Method in brief: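 Stromal components (HUVEC and hMSC) are co-assembled with the cancer cells into multicellular spheroids. Drugs are then added singly or paired, at concentrations falling by half-log increments from a clinically achievable maximum, capped at 10 microM without known Cmax.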

[1] = second compound 0.1 µM, first compound 0.0316 µM
[2] = second compound 0.1 µM, first compound 0.1 µM
[3] = second compound 0.1 µM, first compound 0.316 µM
[4] = second compound 0.1 µM, first compound 1 µM
[5] = second compound 0.316 µM, first compound 0.0316 µM
[6] = second compound 0.316 µM, first compound 0.1 µM
[7] = second compound 0.316 µM, first compound 0.316 µM
[8] = second compound 0.316 µM, first compound 1 µM
[9] = second compound 1 µM, first compound 0.0316 µM
[10] = second compound 1 µM, first compound 0.1 µM
[11] = second compound 1 µM, first compound 0.316 µM
[12] = second compound 1 µM, first compound 1 µM
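Further: spheroids exposed to agents for seven days before readout.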
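Wherever viability, T/C is given: 100% = DMSO vehicle control viability.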

`C=CC(=O)N1CCN(c2nc(=O)n(-c3c(C)ccnc3C(C)C)c3nc(-c4c(O)cccc4F)c(F)cc23)C(C)C1` (configuration not stated) + CNC(C)C(=O)NC1CN(S(=O)(=O)c2cccc(S(=O)(=O)N3CCC4CCC(C(=O)NC(c5ccccc5)c5ccccc5)N4C(=O)C(NC(=O)C(C)NC)C3)c2)CCC2CCC(C(=O)NC(c3ccccc3)c3ccccc3)N2C1=O showed an IC50 (second compound 0.00316 µM) of 4240 nM, an IC50 (second compound 0.01 µM) of 2680 nM and an IC50 (second compound 0.0316 µM) of 4240 nM. The IC50 (second compound 0.1 µM) was 3320 nM, the IC50 (second compound 0.316 µM) was 2220 nM and the IC50 (second compound 1 µM) was 3250 nM. It also gave a viability, T/C (second compound 0.00316 µM, first compound 0.0316 µM) of 109%, a viability, T/C (second compound 0.00316 µM, first compound 0.1 µM) of 99.2% and a viability, T/C (second compound 0.00316 µM, first compound 0.316 µM) of 88%. For the same compound, the viability, T/C (second compound 0.00316 µM, first compound 1 µM) was 78.2%, the viability, T/C (second compound 0.00316 µM, first compound 3.16 µM) was 58% and the viability, T/C (second compound 0.00316 µM, first compound 10 µM) was 29.4%. It also gave a viability, T/C (second compound 0.01 µM, first compound 0.0316 µM) of 110%, a viability, T/C (second compound 0.01 µM, first compound 0.1 µM) of 93.2% and a viability, T/C (second compound 0.01 µM, first compound 0.316 µM) of 95.5%. It also gave a viability, T/C (second compound 0.01 µM, first compound 1 µM) of 66.7%, a viability, T/C (second compound 0.01 µM, first compound 3.16 µM) of 47.3% and a viability, T/C (second compound 0.01 µM, first compound 10 µM) of 27.8%. The viability, T/C (second compound 0.0316 µM, first compound 0.0316 µM) was 106%, the viability, T/C (second compound 0.0316 µM, first compound 0.1 µM) was 101% and the viability, T/C (second compound 0.0316 µM, first compound 0.316 µM) was 96%. For the same compound, the viability, T/C (second compound 0.0316 µM, first compound 1 µM) was 76.9%, the viability, T/C (second compound 0.0316 µM, first compound 3.16 µM) was 58.1% and the viability, T/C (second compound 0.0316 µM, first compound 10 µM) was 29.2%. The viability, T/C [1] was 95.8%, the viability, T/C [2] was 101% and the viability, T/C [3] was 81.5%. For the same compound, the viability, T/C [4] was 81.1%, the viability, T/C (second compound 0.1 µM, first compound 3.16 µM) was 48.6% and the viability, T/C (second compound 0.1 µM, first compound 10 µM) was 28.8%. It also gave a viability, T/C [5] of 92.6%, a viability, T/C [6] of 105% and a viability, T/C [7] of 104%. For the same compound, the viability, T/C [8] was 61.8%, the viability, T/C (second compound 0.316 µM, first compound 3.16 µM) was 53% and the viability, T/C (second compound 0.316 µM, first compound 10 µM) was 36.4%. The viability, T/C [9] was 104%, the viability, T/C [10] was 100% and the viability, T/C [11] was 100%. It also gave a viability, T/C [12] of 68.6%, a viability, T/C (second compound 1 µM, first compound 3.16 µM) of 54.6% and a viability, T/C (second compound 1 µM, first compound 10 µM) of 28.9%.
With `COc1c(OCCCN2CCOCC2)ccc2c3n(c(=NC(=O)c4cnc(N)nc4)nc12)CCN3` + Cc1c(S(C)(=O)=O)c(-c2cc(F)cc(N3CCN(c4ccc(NS(=O)(=O)c5ccc(NC(CCN6CCC(C(=O)OCCCP(=O)(O)O)CC6)CSc6ccccc6)c(S(=O)(=O)C(F)(F)F)c5)cc4)CC3)c2)c(-c2ccc(Cl)cc2)n1C(C)C the IC50 (second compound 0.1 µM) was 231 nM, the IC50 (second compound 0.316 µM) was 185 nM and the IC50 (second compound 1 µM) was 126 nM. For the same compound, the IC50 (second compound 3.16 µM) was 36.4 nM, the IC50 (second compound 10 µM) was less than 3.16 nM and the viability, T/C (second compound 0.1 µM, first compound 0.00316 µM) was 93.1%. It also gave a viability, T/C (second compound 0.1 µM, first compound 0.01 µM) of 100%, a viability, T/C [1] of 100% and a viability, T/C [2] of 88.2%. The viability, T/C [3] was 35.5%, the viability, T/C [4] was 7.35% and the viability, T/C (second compound 0.316 µM, first compound 0.00316 µM) was 90.5%. For the same compound, the viability, T/C (second compound 0.316 µM, first compound 0.01 µM) was 96.7%, the viability, T/C [5] was 105% and the viability, T/C [6] was 81.1%. It also gave a viability, T/C [7] of 22.2%, a viability, T/C [8] of 2.69% and a viability, T/C (second compound 1 µM, first compound 0.00316 µM) of 71.7%. For the same compound, the viability, T/C (second compound 1 µM, first compound 0.01 µM) was 78.3%, the viability, T/C [9] was 78.6% and the viability, T/C [10] was 60.6%. It also gave a viability, T/C [11] of 7.07%, a viability, T/C [12] of 0.53% and a viability, T/C (second compound 3.16 µM, first compound 0.00316 µM) of 45.4%. The viability, T/C (second compound 3.16 µM, first compound 0.01 µM) was 53.2%, the viability, T/C (second compound 3.16 µM, first compound 0.0316 µM) was 63% and the viability, T/C (second compound 3.16 µM, first compound 0.1 µM) was 22.1%. It also gave a viability, T/C (second compound 3.16 µM, first compound 0.316 µM) of 1.45%, a viability, T/C (second compound 3.16 µM, first compound 1 µM) of 0.19% and a viability, T/C (second compound 10 µM, first compound 0.00316 µM) of 28.8%. The viability, T/C (second compound 10 µM, first compound 0.01 µM) was 30.3%, the viability, T/C (second compound 10 µM, first compound 0.0316 µM) was 35.4% and the viability, T/C (second compound 10 µM, first compound 0.1 µM) was 4.88%. For the same compound, the viability, T/C (second compound 10 µM, first compound 0.316 µM) was 0.24% and the viability, T/C (second compound 10 µM, first compound 1 µM) was 0.29%.
With `NC(=O)C(=Cn1cnc(-c2cc(C(F)(F)F)cc(C(F)(F)F)c2)n1)c1cncnc1` + Cc1c(S(C)(=O)=O)c(-c2cc(F)cc(N3CCN(c4ccc(NS(=O)(=O)c5ccc(NC(CCN6CCC(C(=O)OCCCP(=O)(O)O)CC6)CSc6ccccc6)c(S(=O)(=O)C(F)(F)F)c5)cc4)CC3)c2)c(-c2ccc(Cl)cc2)n1C(C)C the IC50 (second compound 0.1 µM) was greater than 300 nM, the IC50 (second compound 0.316 µM) was 143 nM and the IC50 (second compound 1 µM) was 36.6 nM. For the same compound, the IC50 (second compound 3.16 µM) was less than 0.949 nM, the IC50 (second compound 10 µM) was less than 0.949 nM and the viability, T/C (second compound 0.1 µM, first compound 0.000949 µM) was 91.7%. The viability, T/C (second compound 0.1 µM, first compound 0.003 µM) was 91.1%, the viability, T/C (second compound 0.1 µM, first compound 0.00949 µM) was 87.2% and the viability, T/C (second compound 0.1 µM, first compound 0.03 µM) was 91.7%. The viability, T/C (second compound 0.1 µM, first compound 0.0949 µM) was 81%, the viability, T/C (second compound 0.1 µM, first compound 0.3 µM) was 71.8% and the viability, T/C (second compound 0.316 µM, first compound 0.000949 µM) was 95.6%. For the same compound, the viability, T/C (second compound 0.316 µM, first compound 0.003 µM) was 97.5%, the viability, T/C (second compound 0.316 µM, first compound 0.00949 µM) was 89.3% and the viability, T/C (second compound 0.316 µM, first compound 0.03 µM) was 78.8%. The viability, T/C (second compound 0.316 µM, first compound 0.0949 µM) was 64.7%, the viability, T/C (second compound 0.316 µM, first compound 0.3 µM) was 26.7% and the viability, T/C (second compound 1 µM, first compound 0.000949 µM) was 67%. For the same compound, the viability, T/C (second compound 1 µM, first compound 0.003 µM) was 71.3%, the viability, T/C (second compound 1 µM, first compound 0.00949 µM) was 68.5% and the viability, T/C (second compound 1 µM, first compound 0.03 µM) was 55.9%. The viability, T/C (second compound 1 µM, first compound 0.0949 µM) was 20.6%, the viability, T/C (second compound 1 µM, first compound 0.3 µM) was 1.76% and the viability, T/C (second compound 3.16 µM, first compound 0.000949 µM) was 41.7%. It also gave a viability, T/C (second compound 3.16 µM, first compound 0.003 µM) of 42.7%, a viability, T/C (second compound 3.16 µM, first compound 0.00949 µM) of 34.4% and a viability, T/C (second compound 3.16 µM, first compound 0.03 µM) of 24.3%. It also gave a viability, T/C (second compound 3.16 µM, first compound 0.0949 µM) of 2.24%, a viability, T/C (second compound 3.16 µM, first compound 0.3 µM) of 0.67% and a viability, T/C (second compound 10 µM, first compound 0.000949 µM) of 27.9%. The viability, T/C (second compound 10 µM, first compound 0.003 µM) was 25%, the viability, T/C (second compound 10 µM, first compound 0.00949 µM) was 19.2% and the viability, T/C (second compound 10 µM, first compound 0.03 µM) was 6.13%. It also gave a viability, T/C (second compound 10 µM, first compound 0.0949 µM) of 0.4% and a viability, T/C (second compound 10 µM, first compound 0.3 µM) of 0.25%.

— PubChem BioAssay AID1963448 (Molecular Pharmacology Branch, DTP, NCI, 2024)
